The source of these data is EP2966079B1, “PYRIDOPYRIMIDINE OR PYRIMIDOPYRIMIDINE COMPOUND, PREPARATION METHOD, PHARMACEUTICAL COMPOSITION AND USE THEREOF” (Shanghai Institute of Materia Medica, Chinese Academy of …, priority 2013, dated 2014).

The target of one assay is mTOR (Homo sapiens, UniProt P42345). The assay can be described thus: mTOR Kinase test (LANCE Ultra, ULight-4EBP1 substrate). Format: biochemical. The note with it: 1.7 nM mTOR, 50 nM ULight-4EBP1, 100 µM ATP, 1.5 hours reaction. Background: TR-FRET usually uses a lanthanide donor and a delayed reading to cut background.
mTOR, sequence (P42345 1362-2549): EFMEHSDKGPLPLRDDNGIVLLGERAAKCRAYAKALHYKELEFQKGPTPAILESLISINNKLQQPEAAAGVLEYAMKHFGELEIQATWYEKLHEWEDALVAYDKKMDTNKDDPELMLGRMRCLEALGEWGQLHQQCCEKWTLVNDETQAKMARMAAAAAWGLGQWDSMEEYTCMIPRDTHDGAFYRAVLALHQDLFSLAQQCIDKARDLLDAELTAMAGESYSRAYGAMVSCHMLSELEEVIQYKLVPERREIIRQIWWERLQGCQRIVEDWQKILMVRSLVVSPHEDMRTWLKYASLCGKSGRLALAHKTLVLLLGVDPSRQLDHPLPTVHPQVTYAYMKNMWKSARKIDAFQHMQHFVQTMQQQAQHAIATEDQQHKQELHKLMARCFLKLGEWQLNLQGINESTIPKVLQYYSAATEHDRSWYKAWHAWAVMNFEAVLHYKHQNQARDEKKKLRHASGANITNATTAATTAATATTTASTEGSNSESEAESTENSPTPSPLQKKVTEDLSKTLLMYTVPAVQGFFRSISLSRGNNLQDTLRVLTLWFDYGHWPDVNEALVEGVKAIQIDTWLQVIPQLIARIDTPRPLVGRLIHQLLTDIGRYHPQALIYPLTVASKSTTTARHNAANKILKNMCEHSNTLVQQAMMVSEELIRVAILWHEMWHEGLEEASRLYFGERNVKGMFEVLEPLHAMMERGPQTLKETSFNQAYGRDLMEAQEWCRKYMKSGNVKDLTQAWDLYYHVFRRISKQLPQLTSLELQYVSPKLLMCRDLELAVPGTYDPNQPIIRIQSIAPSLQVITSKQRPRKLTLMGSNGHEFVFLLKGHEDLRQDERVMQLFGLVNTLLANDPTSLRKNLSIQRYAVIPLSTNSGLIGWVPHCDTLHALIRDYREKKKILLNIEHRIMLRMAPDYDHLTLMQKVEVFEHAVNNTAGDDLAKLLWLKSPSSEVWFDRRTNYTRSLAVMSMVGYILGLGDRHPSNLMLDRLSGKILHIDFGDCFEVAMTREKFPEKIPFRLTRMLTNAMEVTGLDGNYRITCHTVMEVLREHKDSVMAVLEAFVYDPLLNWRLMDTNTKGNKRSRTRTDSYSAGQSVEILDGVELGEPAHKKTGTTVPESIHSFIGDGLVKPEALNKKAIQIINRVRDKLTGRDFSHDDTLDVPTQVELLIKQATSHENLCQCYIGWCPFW
A further assay has as its system human brain glioma U87MG. Briefly: Cell proliferation assay (MTS method), U87MG. As to conditions: U-87 MG, 72 h, U87MG cells, cultured with compound for 3 days. Format: cell-based. Here is the method: (§1) Cell proliferation assay was based on two types of cell lines, i.e., human brain glioma U87MG and human prostate cancer LNCap, both of which were from ATCC. U87MG and LNCap contain PTEN gene deletion, and belongs to mTOR signal-dependent tumor cells. Cell culture media and related reagents were from GIBCO. U87MG cells were cultured in a MEM complete medium (containing 10% fetal bovine serum, 100 U/mL penicillin and 100 µg/mL streptomycin). […] Cells/compound was cultured for 3 days, and MTS method was used to test cell proliferation. MTS and PMS were purchased from Sigma company, a stock solution of MTS/PMS (20:1) was added into the test cells with 20 µL/well. After a suitable time of incubation, the proliferation assay results was recorded on a 96 well plate microplate reader. Relative cell viability% = (A490valueofadministeredgroup−lightvalueoftheblankgroup)/(lightvalueofDMSOgroup−lightvalueofblankgroup) × 100%. [formula]
(§2) The experimental data were processed with Microsoft Office Excel and Graphpad PRISM 5 to calculate IC50.
(Formazan colour is commonly taken as a measure of viable cells.)

Assay [1] relates to human prostate cancer LNCap. Briefly: Cell proliferation assay (MTS method), LNCap. Format: cell-based. The note with it: 72 h, LNCap cells, cultured with compound for 3 days. Here is the method: as §1, §2

The term IC50 denotes the midpoint of a concentration-inhibition curve. On to `COc1ccc(-c2cc3nc(N4C[C@@H](C)O[C@@H](C)C4)nc(N4C[C@@H](C)O[C@@H](C)C4)c3cn2)cc1CO` [Compound 17, (5-(2,4-di((2S,6R)-2,6-dimethyl)pyrido[4,3-d]pyrimidin-7-yl)-2-methoxyphenyl)methanol], for which the figures for the IC50 (on mTOR; in the assay with human brain glioma U87MG; in assay [1]) were above 20 µM, above 60 µM and 21.4 µM, respectively.
